Experimental data as given in patent US6544964B1, “Method for fixing or separating ions, in particular of lead, using per(3,6-anhydro)cy-clodextrin derivatives” (priority 1997, dated 2003).

What was measured:
[1] = Formation of the lead complex in aqueous solution, followed by proton NMR; format: binding
Description: (§1) To an aqueous solution of the permethyl derivative obtained in example 1 is added an aqueous lead nitrate solution in order to obtain an aqueous solution containing 3 mmole/l of permethyl derivative and 1 mmole/l of lead nitrate. The solution obtained is analyzed by nuclear magnetic resonance under the same conditions as in example 1 (500 MHz, D2O, 298 K).
In this case, the exchange is sufficiently slow compared with the NMR observation time, to observe the two signals corresponding to the free cyclodextrin (FIG. 1(a)) and to the complex (FIG. 1(b)).
(§2) The same operating procedure as in example 2 is followed, but the aqueous solution incorporates 3 mmole/l of the permethyl derivative of example 1 and 3 mmole/l of lead nitrate.
(§3) The same operating procedure as in example 3 is followed, but addition also takes place of sodium nitrate so as to obtain an aqueous solution incorporating 3 mmole/l of the permethyl derivative of example 1, 3 mmole/l of lead nitrate and 3 mmole/l of sodium nitrate.

[2] = Affinity constant for Pb from the NMR results of examples 2 to 4; format: binding; conditions: aqueous solution (D2O), 298 K
Description: as §1, §2, §3

| Substance | NMR spectrum of the lead complex in presence of sodium ions ([1]; 3 mmole/l derivative, 3 mmole/l lead nitrate, 3 mmole/l sodium nitrate) | lead complexation (respective surfaces of free and complexed parts) ([1]; 3 mmole/l permethyl derivative, 1 mmole/l lead nitrate, D2O, 298 K, 500 MHz, free:complexed 2 for 1) | lead complexation (NMR signals) ([1]; 3 mmole/l permethyl derivative, 3 mmole/l lead nitrate, D2O, 298 K) | affinity constant for Pb [2] |
| --- | --- | --- | --- | --- |
| Hexakis (3,6-Anhydro-2-0-methyl)cyclomaltohexaose [Example 1] | not modified | all the lead present is complexed | only the signals of the complex are visible | approximately 10^5 |
| hexakis (3,6-anhydro)cyclomaltohexaose [reference compound] | – | – | – | approximately 2500 |
